Results published in patent publication US20150306108A1, “COMPOSITIONS OF ALDH1A1 INHIBITORS AND METHODS OF USE IN TREATING CANCER” (Indiana University Research & Technology Corporation, priority 2014, published 2015).
Where two headings read alike, the source gives them in different places.

What was measured:
ALDH1A1 = biological target: T1, ALDH1A1 (Homo sapiens, UniProt P00352); assay: ALDH1A1 aldehyde oxidation (dehydrogenase) activity assay, NADH formation at 340 nm; type: biochemical
T1 construct: made in house
T1 sequence (P00352 1-501): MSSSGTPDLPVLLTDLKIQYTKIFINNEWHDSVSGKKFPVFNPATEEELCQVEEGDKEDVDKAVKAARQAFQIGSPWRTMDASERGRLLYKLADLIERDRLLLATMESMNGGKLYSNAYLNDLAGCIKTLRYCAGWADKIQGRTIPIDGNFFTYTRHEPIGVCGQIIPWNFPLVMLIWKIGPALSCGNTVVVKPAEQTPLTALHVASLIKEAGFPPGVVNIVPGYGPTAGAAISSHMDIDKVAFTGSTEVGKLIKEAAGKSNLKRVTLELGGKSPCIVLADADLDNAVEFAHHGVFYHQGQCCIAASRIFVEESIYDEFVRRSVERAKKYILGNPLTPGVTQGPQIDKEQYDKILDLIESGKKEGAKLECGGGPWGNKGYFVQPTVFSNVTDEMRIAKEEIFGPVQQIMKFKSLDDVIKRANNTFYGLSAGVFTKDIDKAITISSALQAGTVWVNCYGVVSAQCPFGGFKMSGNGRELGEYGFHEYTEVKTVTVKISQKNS

ALDH3A1 = biological target: T2, ALDH3A1 (Homo sapiens, UniProt P30838); assay: ALDH3A1 benzaldehyde oxidation activity assay; type: biochemical; settings: Table 4; NI/NI(A) at 100 μM compound; read-out: IC50 in μM (SE) ALDH3A1
T2 construct: made in house
T2 sequence (P30838 1-453): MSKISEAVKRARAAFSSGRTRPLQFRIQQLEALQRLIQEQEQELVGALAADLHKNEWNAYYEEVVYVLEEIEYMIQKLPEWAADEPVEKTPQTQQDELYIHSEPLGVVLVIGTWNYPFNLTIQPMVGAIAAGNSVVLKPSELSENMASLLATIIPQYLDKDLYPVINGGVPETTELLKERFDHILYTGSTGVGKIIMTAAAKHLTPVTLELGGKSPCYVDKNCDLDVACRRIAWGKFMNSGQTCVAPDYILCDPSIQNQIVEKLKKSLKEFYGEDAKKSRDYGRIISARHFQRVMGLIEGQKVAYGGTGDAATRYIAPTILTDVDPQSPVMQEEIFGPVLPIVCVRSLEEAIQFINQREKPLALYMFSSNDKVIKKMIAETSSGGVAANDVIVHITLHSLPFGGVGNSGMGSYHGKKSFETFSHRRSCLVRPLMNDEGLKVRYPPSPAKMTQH
Protocol: Hits from the HTS were ordered from ChemDiv to determine if they had any effect on aldehyde oxidation and whether they were selective for ALDH1A1 compared to ALDH2 and ALDH3A1. Dehydrogenase activity of the three isoenzymes were assayed by monitoring the production of NADH at 340 nm (molar extinction coefficient of 6220 M^−1 cm^−1) on a Beckman DU-640 or Cary 300 Bio UV-Vis spectrophotometer for 2 to 3 minutes. For ALDH1A1 and ALDH2, the reaction contained 100-200 nM enzyme, 200 μM NAD^+, 100 μM propionaldehyde, and 1% DMSO in 50 mM Na^+ BES, pH 7.5 at room temperature. For ALDH3A1, the reaction contained 20 nM enzyme, 200 μM NAD^+, 300 μM benzaldehyde, and 1% DMSO in either 100 mM sodium phosphate or 50 mM Na^+ BES at pH 7.5 at room temperature.
For most compounds, 20 μM concentration was used for the selectivity assays. […] Following a 2 minute incubation of enzyme, compound, and NAD^+, the reaction was initiated by adding substrate. […] Data were fit to the four parameter EC50 equation using SigmaPlot (StatSys v12.3).
Dehydrogenase activity of purified recombinant ALDH1A1, ALDH1A2, ALDH1A3, ALDH1B1, ALDH2, and ALDH3A1 was assayed spectrophotometrically by monitoring the formation of NADH at 340 nm (molar extinction coefficient of 6220 M^−1 cm^−1) on a Beckman DU-640 or Cary 300 Bio UV-Vis spectrophotometer. Characterization of ALDH1A1 WT and ALDH1A1 G458N were performed by co-varying acetaldehyde and NAD^+ concentrations in reactions containing 150-300 nM enzyme, 50-500 μM or 20-200 μM acetaldehyde, and 50-500 μM NAD^+ in 50 mM sodium BES, pH 7.5 at 25° C. Reactions were initiated by adding enzyme. Selectivity of compounds for dehydrogenase activity of ALDH1A1, ALDH1A2, ALDH1A3, ALDH1B1 and ALDH2 were measured in a solution containing 100-200 nM enzyme, 200 μM NAD^+, 1% DMSO, and 100 μM propionaldehyde (non-saturating for all enzymes tested, except ALDH2) in 50 mM sodium BES. ALDH3A1 activity was measured under the following conditions: 25 nM enzyme, 200 μM NAD^+, 1% DMSO, and 300 μM benzaldehyde (˜KM) in either 100 mM sodium phosphate buffer, pH 7.5 or 50 mM sodium BES, pH 7.5. All assays were performed at 25° C. and were initiated by the addition of the aldehyde substrate following a 2 minute pre-incubation with compound and cofactor. Selectivity was initially tested using 20 μM compound, with ALDH1A1-selective modulators further tested using 100 μM compound. […] After a 2 minute pre-incubation with compound and NAD^+, all reactions were initiated by the addition of propionaldehyde. Data were fit to the four parameter EC50 equation using SigmaPlot (StatSys v12.3). The values represent the average of three independent experiments (each n=3). The mode of inhibition was determined via steady-state kinetics by co-varying inhibitor and substrate concentrations at fixed concentration of the second substrate. All reactions contained 100-150 nM ALDH1A1 and 1% DMSO in 50 mM sodium BES, pH 7.5 at 25° C. […] All data were fit to competitive, noncompetitive, uncompetitive, and mixed inhibition models using both single substrate-single inhibitor or tight binding inhibition programs in SigmaPlot (StatSys v12.3). The appropriate model was selected through analysis of goodness-of-fit and the residuals of those fits. The values represent the average of three independent experiments (each n=3) using at least two protein preps.
ALDH1A1, ALDH1A2, ALDH1A3, ALDH2, and ALDH3A1 were produced and purified as previously described. A highthroughput screen (HTS) of 64,000 compounds from the ChemDiv Corp. was performed to identify activators and inhibitors of ALDH1A1. The hydrolysis of para-nitrophenylacetate was used as a measure ALDH1A1 activity (see SM). Selectivity for closely related orthologs was tested at 20 and 100 μM using purified recombinant human ALDH1A1, ALDH1A2, ALDH1A3, ALDH2, and ALDH3A1. […]

ALDH1A2 = biological target: T3, ALDH1A2 (Homo sapiens, UniProt O94788); assay: biochemical; type: biochemical; settings: Table 4; NI/NI(A) at 100 μM compound; read-out: IC50 in μM (SE) ALDH1A2
T3 sequence (O94788 1-518): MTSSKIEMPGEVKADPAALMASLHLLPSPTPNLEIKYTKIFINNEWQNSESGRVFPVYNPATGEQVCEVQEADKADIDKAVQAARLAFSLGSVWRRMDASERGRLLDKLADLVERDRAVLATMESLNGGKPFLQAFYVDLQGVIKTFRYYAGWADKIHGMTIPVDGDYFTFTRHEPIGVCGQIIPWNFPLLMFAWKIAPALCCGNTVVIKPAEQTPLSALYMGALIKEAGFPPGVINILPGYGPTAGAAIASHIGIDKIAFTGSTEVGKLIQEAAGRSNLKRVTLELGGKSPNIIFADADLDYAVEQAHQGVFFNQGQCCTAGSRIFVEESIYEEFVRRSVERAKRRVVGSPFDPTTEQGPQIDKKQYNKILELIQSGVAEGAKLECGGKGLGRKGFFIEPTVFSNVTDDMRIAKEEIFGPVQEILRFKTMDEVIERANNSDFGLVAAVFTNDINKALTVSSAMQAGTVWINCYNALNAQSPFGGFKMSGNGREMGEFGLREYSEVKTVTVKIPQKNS

IGROV1 cells = assay: Spheroid formation under low attachment culture conditions; type: cell-based, human; settings: 50 μM, 7 days, low attachment
Protocol: Ovarian cancer cell lines or primary cells were seeded at a concentration of 25,000 cells/ml in Mammocult complete medium (StemCell Technologies) and ultra-low attachment plates (Corning, Corning, N.Y.). Spheroids were trypsinized every 7 days and re-plated to generate successive generations. To observe spheroid morphology, A2780, SKOV3, IGROV1, and primary cells were cultured in a rotating bioreactor (Synthecon, Houston, Tex.) until […] compact spheroids were visible (10-30 days). They were harvested, preserved with Histochoice MB Tissue Fixative (Amresco, Solon, Ohio) for 1 hour, and embedded in Immuno-bed resin (Polysciences, Warrington, Pa.). Two micron thick sections were cut on an ultramicrotome and stained with 0.1% methylene blue/0.15% basic fuchsin in 50% methanol.
Cell viability was measured by the trypan blue (ThermoScientific) exclusion test. Cell proliferation was quantified by the MTT assay. Spheroids were counted after centrifugation at 300×g for 5 minutes. All assays were performed in four replicates. Data are presented as means±SEM.

[1] = 100 μM propionaldehyde, 200 μM NAD+, mean/SEM of three independent assays, read-out: IC50 values with ALDH1A1 for compounds that inhibit dehydrogenase activity
[2] = list of inhibitors in summary and description, read-out: IC50 with the listed inhibitors of ALDH1A1 activity

## Cc1ccc(-c2nnc(N3CCN(C)CC3)c3ccccc23)cc1C [CM001]
ALDH1A1; [1]
  IC50: 1.1 µM
ALDH1A1; [2]
  IC50: 1.1 µM

## CCOc1cc(S(=O)(=O)NCc2cccnc2)c(C)cc1C [CM009]
ALDH1A1; [1]
  IC50: 5.3 µM
ALDH1A1; [2]
  IC50: 5.3 µM

## C=CCc1cccc(CNc2nc3ccccc3n2CCC)c1O [CM010]
ALDH1A1; [1]
  IC50: 1.3 µM
ALDH1A1; [2]
  IC50: 1.3 µM

## CCC(C)NC(=O)C1(O)c2cc(Br)ccc2NC(O)N1c1ccc(Cl)cc1 (stereo not drawn) [CM020]
ALDH1A1; [1]
  IC50: 0.45 µM
ALDH1A1; [2]
  IC50: 0.45 µM

## Cc1ccc(Cn2c(CN3CCN(c4ccccc4)CC3)nc3c2c(=O)n(C)c(=O)n3C)cc1 [CM025]
ALDH3A1
  IC50: > 100 µM

## CCN1CCN(Cc2nc3c(c(=O)n(C)c(=O)n3C)n2CC(=O)c2ccccc2)CC1 [CM027]
ALDH1A1; Table 4, NI/NI(A) at 100 μM compound, * <70% maximum inhibition, read-out: IC50 in μM (SE) ALDH1A1
  IC50: 6.1 µM

## NC(=O)CSc1nc2c(sc3ccccc32)c(=O)n1CCCN1CCCC1 [CM037a]
ALDH1A1; [1]
  IC50: 23 µM

## Cc1nc2ccccc2c2oc(C(=O)N3CCCCC3)cc12 [CM038]
ALDH1A1; [1]
  IC50: 0.26 µM
ALDH1A1; [2]
  IC50: 0.26 µM
ALDH1A1; propionaldehyde oxidation, values in nM, read-out: IC50 with ALDH1A1
  IC50: < 0.3 µM

## COc1ccc(S(=O)(=O)N2N=C(c3cccc(NS(C)(=O)=O)c3)CC2c2ccco2)cc1 (stereo not drawn) [CM045]
ALDH1A1; [1]
  IC50: 2.5 µM
ALDH1A1; [2]
  IC50: 2.5 µM

## Cc1cc(C)c(S(=O)(=O)Nc2ccc(O)c(Cl)c2)cc1C [CM047]
ALDH1A1; [1]
  IC50: 0.31 µM
ALDH1A1; [2]
  IC50: 0.31 µM

## CC(C)CCn1c(CN2CCC(C(N)=O)CC2)nc2c1c(=O)n(C)c(=O)n2C [CM053]
ALDH3A1
  IC50: > 100 µM

## Cc1cccc(Cn2c(CN3CCN(C(=O)c4ccco4)CC3)nc3c2c(=O)n(C)c(=O)n3C)c1 [CM055]
ALDH3A1
  IC50: > 100 µM
ALDH1A2
  IC50: > 100 µM

## CC(C)CCn1c(CN2CCC(C)CC2)nc2c1c(=O)n(C)c(=O)n2C [CM057]
ALDH3A1
  IC50: > 100 µM

## CN1CCN(C(=O)c2ccc3c(c2)N(Cc2ccccc2)CCS3)CC1 [CM306]
ALDH1A1; [1]
  IC50: 3.5 µM
ALDH1A1; [2]
  IC50: 3.5 µM

## Cc1ccc(S(=O)(=O)NCC2CCC(C(=O)NCc3ccco3)CC2)cc1 (stereo not drawn) [CM307]
ALDH1A1; [1]
  IC50: 0.57 µM
ALDH1A1; [2]
  IC50: 0.57 µM

## CCN(CC)c1ccc(C=O)cc1 [DEAB, diethylaminobenzaldehyde, reference compound]
IGROV1 cells
  formation of spheres: completely inhibited
